Measurements as given in PubChem BioAssay (NCI).
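Results reflect a 48-hour exposure of cells in 96-well plates to compound at five concentrations. TGI: concentration producing complete growth inhibition.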

Legend:
Test in all cases: NCI-60 cell line screen, 48 h
786-0 renal = test system: 786-0 renal
A498 renal = test system: A498 renal
A549 NSCLC = test system: A549 NSCLC
ACHN renal = test system: ACHN renal
BT-549 breast = test system: BT-549 breast
CAKI-1 renal = test system: CAKI-1 renal
COLO 205 colon = test system: COLO 205 colon
DU-145 prostate = test system: DU-145 prostate
EKVX NSCLC = test system: EKVX NSCLC
HCC-2998 colon = test system: HCC-2998 colon
HCT-116 colon = test system: HCT-116 colon
HCT-15 colon = test system: HCT-15 colon
HL-60(TB) leukemia = test system: HL-60(TB) leukemia
HOP-62 NSCLC = test system: HOP-62 NSCLC
HOP-92 NSCLC = test system: HOP-92 NSCLC
HS 578T breast = test system: HS 578T breast
HT29 colon = test system: HT29 colon
IGROV1 ovarian = test system: IGROV1 ovarian
K-562 leukemia = test system: K-562 leukemia
KM12 colon = test system: KM12 colon
M14 melanoma = test system: M14 melanoma
MALME-3M melanoma = test system: MALME-3M melanoma
MCF7 breast = test system: MCF7 breast
MDA-MB-231 breast = test system: MDA-MB-231 breast
MDA-MB-435 = test system: MDA-MB-435
MDA-N = test system: MDA-N
NCI-H23 lung = test system: NCI-H23 lung
NCI-H460 lung = test system: NCI-H460 lung
NCI-H522 lung = test system: NCI-H522 lung
NCI/ADR-RES ovarian = test system: NCI/ADR-RES ovarian
OVCAR-4 ovarian = test system: OVCAR-4 ovarian
OVCAR-5 ovarian = test system: OVCAR-5 ovarian
OVCAR-8 ovarian = test system: OVCAR-8 ovarian
PC-3 prostate = test system: PC-3 prostate
RPMI-8226 leukemia = test system: RPMI-8226 leukemia
RXF 393 renal = test system: RXF 393 renal
SF-268 CNS = test system: SF-268 CNS
SF-295 CNS = test system: SF-295 CNS
SF-539 CNS = test system: SF-539 CNS
SK-MEL-28 melanoma = test system: SK-MEL-28 melanoma
SK-MEL-5 melanoma = test system: SK-MEL-5 melanoma
SK-OV-3 ovarian = test system: SK-OV-3 ovarian
SN12C renal = test system: SN12C renal
SNB-19 CNS = test system: SNB-19 CNS
SNB-75 CNS = test system: SNB-75 CNS
SR leukemia = test system: SR leukemia
SW-620 colon = test system: SW-620 colon
T-47D breast = test system: T-47D breast
TK-10 renal = test system: TK-10 renal
U251 CNS = test system: U251 CNS
UACC-257 melanoma = test system: UACC-257 melanoma
UACC-62 melanoma = test system: UACC-62 melanoma
UO-31 renal = test system: UO-31 renal
CCRF-CEM leukemia = test system: CCRF-CEM leukemia
LOX IMVI melanoma = test system: LOX IMVI melanoma
NCI-H226 lung = test system: NCI-H226 lung
OVCAR-3 ovarian = test system: OVCAR-3 ovarian
SK-MEL-2 melanoma = test system: SK-MEL-2 melanoma

## COC1/C=C/C(C)C(OC)CC(O)/C=C/C(C)C(C(C)C(OC)C(C)CCC(=O)C(C)C(C/C=C/N(C)C=O)OC)OC(=O)/C=C/C=C(\C)CC(OC)CC2=CC(=O)O[C@@H](C(C)C(OC)C1)[C@H]2O (stereo not given in full)
786-0 renal
  TGI: 503 nM
A498 renal
  TGI: 131 nM
A549 NSCLC
  TGI: 1100 nM
ACHN renal
  TGI: 1320 nM
BT-549 breast
  TGI: 498 nM
CAKI-1 renal
  TGI: 87.5 nM
COLO 205 colon
  TGI: 418 nM
DU-145 prostate
  TGI: > 6790 nM
EKVX NSCLC
  TGI: 1320 nM
HCC-2998 colon
  TGI: 1350 nM
HCT-116 colon
  TGI: 410 nM
HCT-15 colon
  TGI: 620 nM
HL-60(TB) leukemia
  TGI: > 25000 nM
HOP-62 NSCLC
  TGI: 160 nM
HOP-92 NSCLC
  TGI: 168 nM
HS 578T breast
  TGI: 261 nM
HT29 colon
  TGI: > 5010 nM
IGROV1 ovarian
  TGI: 423 nM
K-562 leukemia
  TGI: > 25000 nM
KM12 colon
  TGI: > 6110 nM
M14 melanoma
  TGI: 175 nM
MALME-3M melanoma
  TGI: 317 nM
MCF7 breast
  TGI: 409 nM
MDA-MB-231 breast
  TGI: 106 nM
MDA-MB-435
  TGI: 1050 nM
MDA-N
  TGI: 178 nM
NCI-H23 lung
  TGI: 1060 nM
NCI-H460 lung
  TGI: 477 nM
NCI-H522 lung
  TGI: 653 nM
NCI/ADR-RES ovarian
  TGI: 1140 nM
OVCAR-4 ovarian
  TGI: 1210 nM
OVCAR-5 ovarian
  TGI: 1860 nM
OVCAR-8 ovarian
  TGI: 776 nM
PC-3 prostate
  TGI: 1090 nM
RPMI-8226 leukemia
  TGI: 3700 nM
RXF 393 renal
  TGI: 265 nM
SF-268 CNS
  TGI: > 5720 nM
SF-295 CNS
  TGI: 362 nM
SF-539 CNS
  TGI: 434 nM
SK-MEL-28 melanoma
  TGI: 385 nM
SK-MEL-5 melanoma
  TGI: 274 nM
SK-OV-3 ovarian
  TGI: 905 nM
SN12C renal
  TGI: > 25000 nM
SNB-19 CNS
  TGI: 239 nM
SNB-75 CNS
  TGI: 320 nM
SR leukemia
  TGI: > 25000 nM
SW-620 colon
  TGI: > 12400 nM
T-47D breast
  TGI: 6270 nM
TK-10 renal
  TGI: 785 nM
U251 CNS
  TGI: 199 nM
UACC-257 melanoma
  TGI: 318 nM
UACC-62 melanoma
  TGI: 504 nM
UO-31 renal
  TGI: 300 nM

## CCn1ncc(Oc2c(Cl)cc(N)cc2Cl)c(Cl)c1=O
786-0 renal
  TGI: > 100000 nM
A498 renal
  TGI: > 100000 nM
A549 NSCLC
  TGI: > 100000 nM
ACHN renal
  TGI: > 100000 nM
BT-549 breast
  TGI: 91100 nM
CAKI-1 renal
  TGI: > 100000 nM
CCRF-CEM leukemia
  TGI: > 100000 nM
COLO 205 colon
  TGI: 46900 nM
DU-145 prostate
  TGI: > 100000 nM
EKVX NSCLC
  TGI: > 100000 nM
HCC-2998 colon
  TGI: > 100000 nM
HCT-116 colon
  TGI: 80800 nM
HCT-15 colon
  TGI: > 100000 nM
HL-60(TB) leukemia
  TGI: > 100000 nM
HOP-62 NSCLC
  TGI: > 100000 nM
HOP-92 NSCLC
  TGI: > 100000 nM
HS 578T breast
  TGI: 67600 nM
HT29 colon
  TGI: 58500 nM
IGROV1 ovarian
  TGI: > 100000 nM
K-562 leukemia
  TGI: > 100000 nM
KM12 colon
  TGI: > 100000 nM
LOX IMVI melanoma
  TGI: > 100000 nM
M14 melanoma
  TGI: > 100000 nM
MALME-3M melanoma
  TGI: > 100000 nM
MCF7 breast
  TGI: > 100000 nM
MDA-MB-231 breast
  TGI: > 100000 nM
MDA-MB-435
  TGI: > 100000 nM
MDA-N
  TGI: 79600 nM
NCI-H226 lung
  TGI: > 100000 nM
NCI-H23 lung
  TGI: > 100000 nM
NCI-H460 lung
  TGI: > 100000 nM
NCI/ADR-RES ovarian
  TGI: > 100000 nM
OVCAR-3 ovarian
  TGI: 40700 nM
OVCAR-4 ovarian
  TGI: > 100000 nM
OVCAR-5 ovarian
  TGI: > 100000 nM
OVCAR-8 ovarian
  TGI: > 100000 nM
PC-3 prostate
  TGI: > 100000 nM
RPMI-8226 leukemia
  TGI: > 100000 nM
RXF 393 renal
  TGI: > 100000 nM
SF-268 CNS
  TGI: > 100000 nM
SF-295 CNS
  TGI: 63600 nM
SF-539 CNS
  TGI: > 100000 nM
SK-MEL-2 melanoma
  TGI: > 100000 nM
SK-MEL-28 melanoma
  TGI: > 100000 nM
SK-MEL-5 melanoma
  TGI: 65000 nM
SK-OV-3 ovarian
  TGI: 77900 nM
SN12C renal
  TGI: > 100000 nM
SNB-19 CNS
  TGI: > 100000 nM
SNB-75 CNS
  TGI: > 100000 nM
SR leukemia
  TGI: 80700 nM
SW-620 colon
  TGI: > 100000 nM
T-47D breast
  TGI: > 100000 nM
TK-10 renal
  TGI: > 100000 nM
U251 CNS
  TGI: > 100000 nM
UACC-257 melanoma
  TGI: > 100000 nM
UACC-62 melanoma
  TGI: > 100000 nM
UO-31 renal
  TGI: > 100000 nM
